Patent US9241917B2, “Facially amphiphilic polymers and oligomers and uses thereof” (priority 2003, dated 2016)
In brackets after ≈: the same amount, converted by molar mass.

What was measured:
Heparin = assay: Clotting time of activated plasma in the presence of heparin; format: biochemical; set-up: unit not given here; details: heparin 1 unit, 0.2 ug/ml
[1] = tested on: low molecular weight heparin (LMWH, Innohep); assay: Clotting time of activated plasma in the presence of LMWH; format: biochemical; details: for Clotting time of activated plasma: LMWH 4.6 ug/ml
[2] = tested on: Trichophyton mentagrophytes ATCC 9533; assay: Antifungal growth assay (MIC100), Trichophyton mentagrophytes; format: cell-based; details: ATCC9533, 72 h, complete inhibition of growth, 3 days, 28° C.
Experimental: (§1) Several different genera of fungi were tested for their sensitivity to a set of salicylamide and arylamide oligomers. Both non-filamentous (yeast) and filamentous fungi were tested and specific fungi that are associated with various types of human infections were chosen for the screen (Table 4). […] All growth assays were done in a total of 1 ml volumes and growth was assessed by turbidity measurements. Other assay conditions are described in Table 6.

[3] = tested on: Candida albicans ATCC 10231; assay: Antifungal growth assay (MIC100), Candida albicans; format: cell-based; details: ATCC10231, 20 h
Experimental: as §1

[4] = tested on: Cryptococcus neoformans ATCC 24067; assay: Antifungal growth assay (MIC100), Cryptococcus neoformans; format: cell-based; details: ATCC24067, 48 h, complete inhibition of growth, 2 days, 37° C.
Experimental: as §1

[5] = tested on: Trichophyton rubrum ATCC 10218; assay: Antifungal growth assay (MIC100), Trichophyton rubrum; format: cell-based; details: ATCC10218, 72 h, complete inhibition of growth, 3 days, 28° C.
Experimental: as §1

E. coli (ATCC25922) = assay: Growth assay (MIC100), E. coli control organism; format: cell-based; details: Escherichia coli, ATCC25922, 20 h
Experimental: as §1

[6] = tested on: Aspergillus fumigatus ATCC 1028; assay: Antifungal growth assay (MIC100), Aspergillus fumigatus; format: cell-based; details: ATCC1028, 48 h, complete inhibition of growth, 2 days, 28° C.
Experimental: as §1

human erythrocytes = assay: Hemolysis of human erythrocytes; format: cell-based
Experimental: For example, cytotoxic selectivity can be assessed by determining the hemolytic activity of the polymer or oligomer. Hemolytic activity assays are performed by measuring the degree of hemolysis of human erythrocytes following incubation in the presence of the polymer or oligomer and determining HC50 values. […] See also Javadpour, M. M., et al., J. Med. Chem. 39:3107-3113 (1996).
The toxicity to mammalian cells of polymers and oligomers of the present invention was evaluated using human blood obtained from healthy volunteers, anticoagulated with 0.1 volume of sodium citrate. The general procedure is as follows: Washed erythrocytes are suspended in either HEPES buffer, pH 7.4, containing 1 mM Mg2^+ and 1 mM Ca2^+ or in heated and unheated autologous serum obtained from clotted blood. Red cell agglutination is evaluated microscopically and red cell lysis is evaluated by measuring the amount of released hemoglobin spectroscopically. The effect of polymers on platelet function is studied by adding increasing concentrations of polymer to citrate-anticoagulated platelet-rich plasma. Platelet aggregation and secretion are then evaluated in a lumi-aggregometer (Chrono-Log).
One distinction is that the studies with Pmx10073 were done in whole blood. […] The concentrations of compound that are cytotoxic for mammalian cells were determined and compared to efficacious concentrations. […]

E. coli = assay: Antimicrobial assay, minimal inhibitory concentration against E. coli

Row | SMILES | Clotting time, Average (Heparin; oligomer 4.4 ug/ml) | Clotting time, Trial #1 (Heparin; oligomer 4.4 ug/ml) | Clotting time, Trial #2 (Heparin; oligomer 4.4 ug/ml) | Clotting time, Trial #3 (Heparin; oligomer 4.4 ug/ml) | Clotting time, Trial #4 (Heparin; oligomer 4.4 ug/ml) | Clotting time, Average (Heparin; oligomer 44.4 ug/ml) | Clotting time, Trial #1 (Heparin; oligomer 44.4 ug/ml) | Clotting time, Trial #2 (Heparin; oligomer 44.4 ug/ml) | Clotting time, Trial #3 (Heparin; oligomer 44.4 ug/ml) | Clotting time, Trial #4 (Heparin; oligomer 44.4 ug/ml) | Clotting time of activated plasma ([1]; oligomer 14.8 ug/ml) | Clotting time of activated plasma ([1]; oligomer 0.4 ug/ml) | other results
1 | COc1ccc(NC(=O)C(CCCNC(=N)N)NC(=O)c2cc(NC(=O)C(CCCNC(=N)N)NC(=O)c3cc(NC(=O)C(CCCNC(=N)N)NC(=O)c4cc(NC(=O)C(CCCNC(=N)N)NC(=O)c5cc(N)ccc5OC)ccc4OC)ccc3OC)ccc2OC)cc1C(=O)NC(CCCNC(=N)N)C(N)=O (stereo not drawn) [#3] | 80.3 | 72.2 | 75.1 | 81.2 | 92.6 | 36.8 | 38.7 | 34.1 | 38.6 | 35.6 | 109.2 | – | –
2 | CC(C)CCOc1ccc(NC(=O)C(CCCNC(=N)N)NC(=O)c2cc(NC(=O)C(CCCNC(=N)N)NC(=O)c3cc(NC(=O)C(CCCNC(=N)N)NC(=O)c4cc(NC(=O)C(CCCNC(=N)N)NC(=O)c5cc(N)ccc5OCCC(C)C)ccc4OCCC(C)C)ccc3OCCC(C)C)ccc2OCCC(C)C)cc1C(=O)NC(CCCNC(=N)N)C(N)=O (stereo not drawn) [#4] | 169.8 | 175.5 | 153.8 | 157.1 | 192.6 | 29.2 | 31.6 | 29.6 | 29.6 | 26.1 | 44.9 | 137.7 | –
3 | CC(C)CC(NC(=O)c1cc(NC(=O)C(CC(C)C)NC(=O)c2cc(NC(=O)C(CC(C)C)NC(=O)c3cc(NC(=O)C(CC(C)C)NC(=O)c4cc(NC(=O)C(CC(C)C)NC(=O)c5cc(N)ccc5OCCNC(=N)N)ccc4OCCNC(=N)N)ccc3OCCNC(=N)N)ccc2OCCNC(=N)N)ccc1OCCNC(=N)N)C(N)=O (stereo not drawn) [#10] | >400 | 113.8 | 317.6 | >450 | >450 | 38.7 | 40.7 | 35.6 | 36.7 | 33.7 | 97.6 | – | –
4 | CC(C)CC(N)C(=O)Nc1cc(C(C)(C)C)cc(NC(=O)c2cccc(C(=O)Nc3cc(C(C)(C)C)cc(NC(=O)C(N)CC(C)C)c3SCCN)c2)c1SCCN (stereo not drawn) [#13] | 92.4 | 81.2 | 88.2 | 94.1 | 106.2 | – | – | – | – | – | 189.2 | – | –
5 | CC(C)(C)c1cc2c(OCC(=O)NCCCCCN)c(c1)Cc1cc(C(C)(C)C)cc(c1OCC(=O)NCCCCCN)Cc1cc(C(C)(C)C)cc(c1OCC(=O)NCCCCCN)Cc1cc(C(C)(C)C)cc(c1OCC(=O)NCCCCCN)C2 [#18] | 57.6 | 57.6 | – | – | – | – | – | – | – | – | 48.6 | 140.1 | –
6 | CC(C)CCOc1cc(OCCC(C)C)c(C(=O)NNC(=O)c2cc(C(=O)NCCN(C)C)c(OCCCCCN)cc2OCCCCCN)cc1C(=O)NNC(=O)c1cc(C(=O)NCCN(C)C)c(OCCCCCN)cc1OCCCCCN [#19] | 27.9 | 29.0 | 26.7 | – | – | – | – | – | – | – | 34 | 64.2 | Clotting time, Average (Heparin; oligomer 0.4 ug/ml): >400; Clotting time, Trial #1 (Heparin; oligomer 0.4 ug/ml): >400; Clotting time, Average (Heparin; oligomer 1.5 ug/ml): 40.2; Clotting time, Trial #1 (Heparin; oligomer 1.5 ug/ml): 43.2; Clotting time, Trial #2 (Heparin; oligomer 1.5 ug/ml): 37.1; Clotting time of activated plasma ([1]; oligomer 1.5 ug/ml): 232.8
7 | C[C@@H]1[C@H](O)[C@@H](C)/C=C/C=C/C=C/C=C/C=C/C=C/C=C/[C@H](O[C@@H]2O[C@H](C)[C@@H](O)[C@H](N)[C@@H]2O)C[C@@H]2O[C@](O)(C[C@@H](O)C[C@@H](O)[C@H](O)CC[C@@H](O)C[C@@H](O)CC(=O)O[C@H]1C)C[C@H](O)[C@H]2C(=O)O [Amphotericin] | – | – | – | – | – | – | – | – | – | – | – | – | MIC [2]: 0.3 µg/mL (≈ 0.325 µM); MIC [3]: 0.1 µg/mL (≈ 0.108 µM); MIC [4]: 0.1 µg/mL (≈ 0.108 µM); MIC [5]: 1 µg/mL (≈ 1.08 µM); MIC (E. coli (ATCC25922)): 3 µg/mL (≈ 3.25 µM); MIC [6]: 1 µg/mL (≈ 1.08 µM)
8 | CC(C)(C)c1cc(NC(=O)c2cccc(C(=O)Nc3cc(C(C)(C)C)cc(NC(=O)[C@@H](N)CCCNC(=N)N)c3SCCN)c2)c(SCCN)c(NC(=O)[C@@H](N)CCCNC(=N)N)c1 [Compound 6] | – | – | – | – | – | – | – | – | – | – | – | – | HC50 RBC (human erythrocytes; Table 1, arylamide series, one hour incubation, 50% hemoglobin release): 715 µg/mL; MIC (E. coli; Escherichia coli, read-out: MIC E. coli): 6 µg/mL (≈ 6.51 µM); Antimicrobial activity against E. coli, in words (E. coli; text on Tables 1 and 2): highly potent and selective
9 | CC(C)(C)c1cc(NC(=O)c2cc(OCCN)cc(C(=O)Nc3cc(C(C)(C)C)cc(NC(=O)[C@H](N)CCCNC(=N)N)c3SCCN)c2)c(SCCN)c(NC(=O)[C@H](N)CCCNC(=N)N)c1 [Compound 12] | – | – | – | – | – | – | – | – | – | – | – | – | Concentration lysing red cells (no lysis up to) (human erythrocytes): > 800 µM
10 | CC(C)CCOc1cc(OCCC(C)C)c(C(=O)NNC(=O)c2cc(C(=O)NCCN(C)C)c(OCCCCCN)cc2OCCCCCN)cc1C(=O)NNC(=O)c1cc(C(=O)NCCN(C)C)c(OCCCCCN)cc1OCCCCCN [Compound 19] | – | – | – | – | – | – | – | – | – | – | – | – | Antagonism of the delay in plasma clotting caused by LMWH, in words ([1]; oligomer 4.4 ug/ml, LMWH (Innohep) 4.6 ug/ml final concentration): significantly antagonized the delay in plasma clotting
